Reference: patent publication US10391201B2, “Gene therapy” (Ospedale San Raffaele S.r.l., priority 2014, dated 2019)

Tests used:
[1] = system: cord blood (CB)-derived CD34+ cells; format: cell-based, human; conditions: CB-derived CD34+ HSPC; MOI 1; 20 μm FK506, 5 mM 3-MA alone or with 10 μM CsA / 10 μg/mL rapamycin
Method: (§1) Human CB and BM-derived haematopoietic stem/progenitor cells (HSPC) were cultured in serum-free StemSpan medium (StemCell Technologies) supplemented with 100 ng/mL recombinant human stem cell factor (rhSCF), 20 ng/mL recombinant human thrombopoietin (rhTPO), 100 ng/mL recombinant human Flt3 ligand (rhFlt3) and 20 ng/mL recombinant human IL6 (rhIL6) (all from Peprotech) 16 to 24 hours prior to transduction. HSPC were then transduced at a concentration of 1×10^6 cells per mL with vesicular stomatitis virus glycoprotein (VSV-G)-pseudotyped SINLV for 20 hours at the indicated multiplicity of infection (MOI) in the same medium. After transduction, cells were washed and maintained serum-free StemSpan supplemented with cytokines as above until the reading of GFP-positive (GFP+) cells by FACS. After FACS they were maintained in Roswell Park Memorial Institute medium (RPMI, Lonza) supplemented with 10% FBS, 25 ng/mL rhSCF, 5 ng/mL rhIL6, 25 ng/mL rhFlt3 and 5 ng/mL rhTPO for another seven days before analysis of vector copy numbers. MDM were transduced 7 days after differentiation. T lymphocytes were transduced at a concentration of 10^6 cells per mL, after 3 days of stimulation. All the cells were exposed to the vector for 16-20 hours.
(§2) They were added to the transduction medium at the indicated concentration and washed out with the vector 16-20 hours later.
(§3) GFP expression in transduced cells was measured 5-7 days post-transduction. Adherent MDM were detached by scraping in 5 mM PBS-EDTA, washed and resuspended in PBS containing 2% FBS. Cells grown in suspension were washed and resuspended in PBS containing 2% FBS. To exclude dead cells from the analysis, 10 ng/mL 7-aminoactinomycin D (7-AAD) was added.
(§4) DNA from cell cultures was extracted using a Maxwell 16 instrument (Promega) or Blood & Cell Culture DNA Micro Kit (Qiagen). To amplify the vector sequence, primers and probes complementary to the vector Rev responsive element sequence were used. Vector copy numbers and replication intermediates were normalised to genomic DNA content, which was assessed using the human TERT gene. Quantitative polymerase chain reaction (qPCR) primers and probe sequences and conditions were previously described (Santoni de Sio, F. R. et al (2006) Blood 107: 4257-65).

[2] = system: bone marrow (BM)-derived CD34+ cells; format: cell-based, human; conditions: BM-derived CD34+ HSPC; MOI 1; 20 μm FK506, 5 mM 3-MA alone or with 10 μM CsA / 10 μg/mL rapamycin
Method: as §1, §2, §3, §4

SMILES: Cn1cnc(N)c2ncnc1-2 [3-MA, 3-methyladenine]
- impact on LV transduction efficiency (in words) [1]: little or no effect
- impact on LV transduction efficiency (in words) [2]: little or no effect
